Results reported in patent publication US7767455B2, “Nucleus export reporter system” (priority 2000, dated 2010).

Assays:
[1] = test system: Rev-mediated nuclear export; assay: Inhibition of Rev-dependent GFP expression of the UTR-hivGFP-RRE reporter in transfected H1299 cells (Western blot); type: cell-based, human; settings: 5 nM LMB in the medium 24 h before harvesting, Rev cotransfected, FIG. 5B
[2] = test system: huGFP reporter; assay: Expression of the Rev-independent huGFP reporter in transfected H1299 cells (Western blot); type: cell-based, human; settings: 5 nM LMB in the medium 24 h before harvesting, FIG. 5B

## CCC(=C/[C@H](C)C/C=C/C(C)=C/[C@@H](C)C(=O)[C@@H](C)[C@H](O)[C@@H](C)C/C(C)=C/C(=O)O)/C=C/[C@@H]1OC(=O)C=C[C@@H]1C [LMB, Leptomycin B]
[1]
  expression of the Rev-dependent GFP reporter: inhibit
[2]
  expression of the huGFP reporter: not the expression of the huGFP reporter
